Experiment [1] deals with NA of A/Sydney/5/97 (H3N2) (Influenza A virus, UniProt Q9DIC9). Put plainly: Neuraminidase inhibition assay (fluorimetric, MUNANA). The experiment is classed as biochemical, influenza A virus A/Sydney/5/97 (H3N2).
In experiment [2] the test system is MCP-1 production in H1N1-infected A549 cells. The experiment is classed as cell-based, human.
Experiment [3] has as its system IL-6 production in H1N1-infected A549 cells. The experiment is classed as cell-based, human.
Where [4] appears, read: NA from A/Sydney/5/97 (H3N2), 37 °C, 40 min, pH 6.5, read-out: IC50, inhibition of NA, A/Sydney/5/97(H3N2) (converted).

We go through five molecules from paper PMC6271231 (Molecules, 2014).

Each structure is given as a SMILES string. “Also recorded” adds a separate entry of the source. Read-outs that look alike come from different tables or passages of the source. A value given as a limit tells only on which side of the number the result lay.

With `O=C(Oc1cc(O)c2c(c1)OC(c1cc(O)c(O)c(O)c1)C(O)C2)c1cc(O)c(O)c(O)c1` (single isomer, unassigned; (+)) [Compound 3, (+)-3,5,3',4',5'-penta-hydroxyflavan-7-gallate], in experiment [1] (setting [4]), the IC50 was over 87.3 µM. In addition, the “inhibition of MCP-1 expression induced by influenza H1N1 virus (in words)” value (shortened to “inhibition of MCP-1 expression induced”) in experiment [2] was “worst inhibition”. Also, the “inhibition of IL-6 expression induced by influenza H1N1 virus (in words)” value in experiment [3] is on record as “weakest inhibition; also recorded: worst inhibition”.
As for `CC1(C)O[C@@H]2Cc3c(O)cc(OC(=O)c4cc(O)c(O)c(O)c4)cc3O[C@@H]2c2cc(O)c(O)c(O)c21` [Compound 1, (2R,3R)-7-O-galloylplumbocatechin A], the IC50 in experiment [1] (setting [4]) was 64.7 µM. In addition, the “inhibition of MCP-1 expression induced” value in experiment [2] is given as “inhibit MCP-1 expression best at the lowest concentrated dilution of 3 μg/mL; also recorded: best results”.
`O=C(Oc1cc(O)c2c(c1)O[C@H](c1cc(O)c(O)c(O)c1)CC2)c1cc(O)c(O)c(O)c1` [Compound 2, (−)-5,3',4',5'-tetrahydroxyflavan-7-gallate]: the IC50 in experiment [1] (setting [4]) was over 90.4 µM. Also, the “inhibition of MCP-1 expression induced” value in experiment [2] is recorded as “inhibit MCP-1 expression best at the lowest concentrated dilution of 3 μg/mL”. Moreover, the “inhibition of IL-6 expression induced by influenza H1N1 virus (in words)” value in experiment [3] is “best inhibitory effect”.
As for `O=C(Oc1cc(O)c2c(c1)O[C@H](c1cc(O)c(OC(=O)c3cc(O)c(O)c(O)c3)c(O)c1)CC2)c1cc(O)c(O)c(O)c1` [Compound 4, (−)-7,4'-di-O-galloyltricetiflavan], the IC50 in experiment [1] (setting [4]) is over 67.3 µM.
As for `CC(=O)N[C@H]1[C@H]([C@H](O)[C@H](O)CO)OC(C(=O)O)=C[C@@H]1N=C(N)N` [zanamivir, reference compound], the IC50 in experiment [1] is 0.000632 µM.
